How the values were obtained:
[1] = tested on: Na+-dependent Cl-/HCO3 exchanger (NCBE); experiment: Inhibition of the Na+-dependent Cl-/HCO3- exchanger (NCBE) in human endothelial cells (BCECF fluorescence, FLIPR, pHi recovery); format: cell-based; conditions: inhibitor concentration of 10 μM; human endothelial cells (ECV-304); in presence of 50 μM HOE 642
Procedure: Inhibition of the Na^+-dependent Cl^−/HCO3 exchanger (NCBE) in human endothelial cells
Human endothelial cells (ECV-304) were detached from culture flasks with the aid of trypsin/EDTA buffer (0.05/0.02% in phosphate buffer) and, after centrifugation (100 g, 5 min), taken up in a buffered salt solution (mmol/l: 115 NaCl, 20 NH4Cl, 5 KCl, 1 CaCl2, 1 MgSO4, 20 N-(2-hydroxyethyl)piperazine-N=-2-ethanesulfonic acid (HEPES), 5 glucose and 1, g/l of bovine serum albumin; pH 7.4). This cell suspension was incubated at 37° C. for 20 min with 5 μM BCECF acetoxymethyl ester. The cells were then washed and resuspended in a sodium- and bicarbonate-free buffer solution (mmol/l: 5 HEPES, 133.8 choline chloride, 4.7 KCl, 1.25 MgCl2, 0.97 K2HPO4, 0.23 KH2PO4, 5 glucose; pH 7.4).
For the subsequent fluorescence measurement in the FLIPR (Fluorescent Imaging Plate Reader), 100 μl of this cell suspension in each case containing 20,000 cells were added by pipette per well of a 96-well microtiter plate and this microtiter plate was centrifuged (100 g, 5 min). In the FLIPR, 100 μl of buffer solution in each case were then removed from a further prepared microtiter plate and added by pipette to each of the 96 wells of the measuring plate. In this case, for a 100% control, i.e. a recovery of the intracellular pH (pHi) by means of the NCBE, a bicarbonate- and sodium-containing buffer solution (mmol/l: 5 HEPES, 93.8 NaCl, 40 NaHCO3, 4.7 KCl, 1.25 CaCl2, 1.25 MgCl2, 0.97 Na2HPO4, 0.23 NaH2PO4, 5 glucose; pH 7.4) which contained 50 μM HOE 642 was used. […]
After addition of the buffer solutions to the dye-loaded acidified cells situated in the measuring plate, the increase in the fluorescence intensity which corresponded to an increase in the pHi was determined in each well of the microtiter plate. The kinetics were in this case recorded at 35° C. over a period of 2 minutes.
The increase in the fluorescence intensities for different concentrations of the compounds according to the invention was related to the two controls and from this the inhibitory action of the substances was determined.

melting point | Structure (SMILES) | Residual activity of the NCBE [1]
75 °C | N#CNS(=O)(=O)c1cccc(Cc2cccc(Cn3c(-c4ccccc4)nc(Cl)c3C=O)c2)c1 [Example 3, 2-Phenyl-4-formyl-5-chloro-3-[3-(3′-cyanoaminosulfonylbenzyl)benzyl]-3H-imidazole] | 24.3%
62 °C | CCCCc1nc(SC)c(C(=O)OCC)n1Cc1ccc(Cc2cccc(S(=O)(=O)NC#N)c2)cc1 [Example 1, Ethyl 2-butyl-5-methylsulfanyl-3-[4-(3′-cyanoaminosulfonylbenzyl)benzyl]-3H-imidazole-4-carboxylate] | 11.1%
172 to 174 °C | CCCCc1nc(SC)c(C(=O)OCC)n1Cc1cccc(Cc2cccc(S(=O)(=O)NC#N)c2)c1 [Example 2, Ethyl 2-butyl-5-methylsulfanyl-3-[3-(3′-cyanoaminosulfonylbenzyl)benzyl]-3H-imidazole-4-carboxylate] | 35.2%
